# Results taken from PMC3407089, “Influence of GABAA Receptor α Subunit Isoforms on the Benzodiazepine Binding Site” (PLoS ONE, 2012).
# Assays:
# [1] = molecular target: α5β1γ2 receptors (Rattus norvegicus, UniProt P18508+P19969); assay: biochemical
# Experimental: Culturing of cells and membrane preparation were done as described before [30].
# For this affinity estimate, membranes were re-suspended in phosphate buffer using a Teflon homogenizer. […] The final protein concentration was 0.1–1 mg of protein/ml. […] Membranes were collected by rapid vacuum filtration on GF/C filters. After three washing steps (3 sec each) with 5 ml of phosphate buffer, the filter-retained radioactivity was determined by liquid scintillation counting.
# [2] = tested on: α1S204Cβ2γ2 GABAA receptor; parameters: method as in PMID 19804380; details: 10 µM 3-NCS; cited from earlier work
# [3] = tested on: α5S209Cβ2γ2 GABAA receptor; assay: Covalent reaction at the functional level (two-electrode voltage clamp, Xenopus oocytes); format: cell-based; details: after 10 µM 3-NCS and removal of non-covalently reacted 3-NCS
# Experimental: (§1) Capped cRNAs were synthesized (Ambion, Austin, TX, USA) from the linearized plasmids with a cytomegalovirus promotor (pCMVvectors) containing the different subunits, respectively. A poly-A tail of about 400 residues was added to each transcript using yeast poly- A polymerase (United States Biologicals, Cleveland, OH, USA). The concentration of the cRNA was quantified on a formaldehyde gel using Radiant Red stain (Bio-Rad) for visualization of the RNA. Known concentrations of RNA ladder (Invitrogen) were loaded as standard on the same gel. cRNAs were precipitated in ethanol/isoamylalcohol 19∶ 1, the dried pellet dissolved in water and stored at −80°C. cRNA mixtures were prepared from these stock solutions and stored at −80°C. Xenopus laevis oocytes were prepared, injected and defolliculated as described previously, [39]. They were injected with 50 nL of the cRNA solution containing wild type or mutated α1 or α2, α3, α5, α6 and wild type β2 and γ2 subunits at a concentration of 10 nM : 10 nM : 50 nM [40] and then incubated in modified Barth’s solution at +18°C for at least 24 h before the measurements.
# (§2) Currents were measured using a modified two-electrode voltage clamp amplifier Oocyte clamp OC-725 (Warner Instruments) in combination with a XY-recorder (90% response time 0.1s) or digitized at 100 Hz using a PowerLab 2/20 (AD Instruments) using the computer programs Chart (ADInstruments GmbH, Spechbach, Germany). Tests with a model oocyte were performed to ensure linearity in the larger current range. The response was linear up to 15 µA.
# (§3) Electrophysiological experiments were performed by using the two-electrode voltage clamp method at a holding potential of −80 mV. The perfusion medium contained 90 mM NaCl, 1 mM KCl, 1 mM MgCl2, 1 mM CaCl2, and 5 mM Na-HEPES (pH 7.4) and was applied by gravity flow 6 ml/min. The perfusion medium was applied through a glass capillary with an inner diameter of 1.35 mm, the mouth of which was placed about 0.4 mm from the surface of the oocyte. Allosteric modulation via the benzodiazepine site was measured at a GABA concentration eliciting 2–5% of the maximal GABA current amplitude. GABA was applied for 20 s alone or in combination with allosteric compound. 6 ml of the covalent reacting compound was applied to the oocyte and incubated for 3 min while stopping the flow of the perfusion medium. Modulation of GABA currents was expressed as (I(modulator + GABA)/IGABA –1) * 100%. The perfusion system was cleaned between drug applications by washing with DMSO to avoid contamination.
# [4] = tested on: wild type GABAA receptors; assay: as above; format: cell-based; details: all wild type receptors
# Experimental: as §1, §2, §3
# [5] = tested on: α3S230Cβ2γ2 GABAA receptor; assay: as above; format: cell-based; details: after 10 µM 3-NCS and removal of non-covalently reacted 3-NCS
# Experimental: as §1, §2, §3
# [6] = tested on: α5T208Cβ2γ2 GABAA receptor; assay: as above; format: cell-based; details: after 10 µM 3-NCS and removal of non-covalently reacted 3-NCS
# Experimental: as §1, §2, §3
# [7] = tested on: α3T231Cβ2γ2 GABAA receptor; assay: as above; format: cell-based; details: after 10 µM 3-NCS and removal of non-covalently reacted 3-NCS
# Experimental: as §1, §2, §3
# [8] = tested on: α1S204Cβ2γ2 GABAA receptor; assay: as above; format: cell-based; details: after 10 µM 3-NCS and removal of non-covalently reacted 3-NCS
# Experimental: as §1, §2, §3
# [9] = tested on: α6S203Cβ2γ2 GABAA receptor; assay: as above; format: cell-based; details: after 10 µM 3-NCS and removal of non-covalently reacted 3-NCS
# Experimental: as §1, §2, §3
# [10] = tested on: α6N204Cβ2γ2 GABAA receptor; assay: as above; format: cell-based; details: after 10 µM 3-NCS and removal of non-covalently reacted 3-NCS
# Experimental: as §1, §2, §3
# [11] = tested on: T1, α5T210Cβ2γ2 GABAA receptor; assay: as above; format: cell-based; details: after 10 µM 3-NCS and removal of non-covalently reacted 3-NCS
# T1 construct: expressed in transfected cells; host or cells: Xenopus laevis oocytes (cRNA injection)
# Experimental: as §1, §2, §3
# [12] = molecular target: α2S204Cβ2γ2 GABAA receptor (Rattus norvegicus, UniProt P18508+P23576, S232C); assay: as above; format: cell-based; details: after 10 µM 3-NCS and removal of non-covalently reacted 3-NCS; read-out: % allosteric modulation, 3-NCS
# Sequence of α2S204Cβ2γ2 GABAA receptor (P23576 29-451 S232C): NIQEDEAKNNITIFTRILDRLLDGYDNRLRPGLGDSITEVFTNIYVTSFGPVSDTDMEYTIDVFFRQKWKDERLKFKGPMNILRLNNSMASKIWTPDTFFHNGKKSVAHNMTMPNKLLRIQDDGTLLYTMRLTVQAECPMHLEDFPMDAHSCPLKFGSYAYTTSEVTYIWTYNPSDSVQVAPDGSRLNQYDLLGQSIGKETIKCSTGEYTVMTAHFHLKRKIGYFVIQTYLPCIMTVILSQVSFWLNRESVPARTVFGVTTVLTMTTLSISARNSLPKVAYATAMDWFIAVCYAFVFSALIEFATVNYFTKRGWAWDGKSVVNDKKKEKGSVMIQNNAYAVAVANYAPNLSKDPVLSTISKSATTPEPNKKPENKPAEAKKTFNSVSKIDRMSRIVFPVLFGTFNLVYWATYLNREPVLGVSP
# Sequence of α2S204Cβ2γ2 GABAA receptor (P18508 39-466): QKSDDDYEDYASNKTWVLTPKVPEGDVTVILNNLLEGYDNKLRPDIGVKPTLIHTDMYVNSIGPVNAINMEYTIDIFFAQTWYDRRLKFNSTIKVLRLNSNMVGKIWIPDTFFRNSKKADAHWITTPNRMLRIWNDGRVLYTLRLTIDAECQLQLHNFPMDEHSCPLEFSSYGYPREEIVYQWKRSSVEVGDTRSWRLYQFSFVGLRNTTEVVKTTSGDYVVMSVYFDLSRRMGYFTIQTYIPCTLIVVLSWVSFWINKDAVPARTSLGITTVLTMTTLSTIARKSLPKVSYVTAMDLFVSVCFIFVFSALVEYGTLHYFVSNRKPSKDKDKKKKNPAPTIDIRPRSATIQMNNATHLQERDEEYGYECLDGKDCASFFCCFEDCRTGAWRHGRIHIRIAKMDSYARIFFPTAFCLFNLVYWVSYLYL
# Sequence of α2S204Cβ2γ2 GABAA receptor (P63138 26-474 partner): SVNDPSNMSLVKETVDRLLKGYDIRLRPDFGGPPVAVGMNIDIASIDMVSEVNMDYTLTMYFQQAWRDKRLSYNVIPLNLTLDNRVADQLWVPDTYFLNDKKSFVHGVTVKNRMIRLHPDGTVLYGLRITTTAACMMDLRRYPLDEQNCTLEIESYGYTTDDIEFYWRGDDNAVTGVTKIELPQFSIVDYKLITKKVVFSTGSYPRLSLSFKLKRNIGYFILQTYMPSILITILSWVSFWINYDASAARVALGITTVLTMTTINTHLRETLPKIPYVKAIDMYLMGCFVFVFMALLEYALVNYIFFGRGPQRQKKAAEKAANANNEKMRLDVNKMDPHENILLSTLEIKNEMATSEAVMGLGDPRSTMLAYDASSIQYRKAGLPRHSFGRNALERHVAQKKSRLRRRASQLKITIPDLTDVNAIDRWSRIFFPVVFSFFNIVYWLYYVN
# Experimental: as §1
# (§4) Tests with a model oocyte were performed to ensure linearity in the larger current range.
# (§5) Electrophysiological experiments were performed by using the two-electrode voltage clamp method at a holding potential of −80 mV. The perfusion medium contained 90 mM NaCl, 1 mM KCl, 1 mM MgCl2, 1 mM CaCl2, and 5 mM Na-HEPES (pH 7.4) and was applied by gravity flow 6 ml/min. The perfusion medium was applied through a glass capillary with an inner diameter of 1.35 mm, the mouth of which was placed about 0.4 mm from the surface of the oocyte. Allosteric modulation via the benzodiazepine site was measured at a GABA concentration eliciting 2–5% of the maximal GABA current amplitude.
# [13] = molecular target: α1T206Cβ2γ2 GABAA receptor (Rattus norvegicus, UniProt P18508+P62813, T233C); assay: as above; format: cell-based; details: after 10 µM 3-NCS and removal of non-covalently reacted 3-NCS; read-out: % allosteric modulation, 3-NCS
# Sequence of α1T206Cβ2γ2 GABAA receptor (P62813 28-455 T233C): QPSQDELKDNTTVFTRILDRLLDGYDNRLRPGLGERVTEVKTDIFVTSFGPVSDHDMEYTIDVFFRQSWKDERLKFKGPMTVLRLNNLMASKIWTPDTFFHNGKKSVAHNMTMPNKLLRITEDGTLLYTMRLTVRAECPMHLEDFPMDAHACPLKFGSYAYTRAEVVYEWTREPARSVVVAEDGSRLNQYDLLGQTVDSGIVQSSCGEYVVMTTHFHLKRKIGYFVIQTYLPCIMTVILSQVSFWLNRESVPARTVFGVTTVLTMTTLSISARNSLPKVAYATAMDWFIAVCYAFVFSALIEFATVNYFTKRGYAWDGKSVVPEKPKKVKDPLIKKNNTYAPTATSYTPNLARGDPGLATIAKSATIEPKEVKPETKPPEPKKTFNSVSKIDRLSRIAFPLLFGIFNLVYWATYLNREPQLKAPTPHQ
# Sequence of α1T206Cβ2γ2 GABAA receptor (P18508 39-466): as the sequence (P18508 39-466) above
# Sequence of α1T206Cβ2γ2 GABAA receptor (P63138 26-474 partner): as the sequence (P63138 26-474 partner) above
# Experimental: as §1, §4, §5
# [14] = molecular target: α2S205Cβ2γ2 GABAA receptor (Rattus norvegicus, UniProt P18508+P23576, S233C); assay: as above; format: cell-based; details: after 10 µM 3-NCS and removal of non-covalently reacted 3-NCS; read-out: % allosteric modulation, 3-NCS
# Sequence of α2S205Cβ2γ2 GABAA receptor (P23576 29-451 S233C): as the sequence (P23576 29-451 S232C) above, with C204S, S205C counted along it
# Sequence of α2S205Cβ2γ2 GABAA receptor (P18508 39-466, stated change not applied): as the sequence (P18508 39-466) above
# Sequence of α2S205Cβ2γ2 GABAA receptor (P63138 26-474 partner): as the sequence (P63138 26-474 partner) above
# Experimental: as §1, §4, §5
# [15] = molecular target: α1S205Cβ2γ2 GABAA receptor (Rattus norvegicus, UniProt P18508+P62813, S232C); assay: as above; format: cell-based; details: after 10 µM 3-NCS and removal of non-covalently reacted 3-NCS; read-out: % allosteric modulation, 3-NCS
# Sequence of α1S205Cβ2γ2 GABAA receptor (P62813 28-455 S232C): as the sequence (P62813 28-455 T233C) above, with S205C, C206T counted along it
# Sequence of α1S205Cβ2γ2 GABAA receptor (P18508 39-466): as the sequence (P18508 39-466) above
# Sequence of α1S205Cβ2γ2 GABAA receptor (P63138 26-474 partner): as the sequence (P63138 26-474 partner) above
# Experimental: as §1, §4, §5
# [16] = molecular target: α2T206Cβ2γ2 GABAA receptor (Rattus norvegicus, UniProt P18508+P23576, T234C); assay: as above; format: cell-based; details: after 10 µM 3-NCS and removal of non-covalently reacted 3-NCS; read-out: % allosteric modulation, 3-NCS
# Sequence of α2T206Cβ2γ2 GABAA receptor (P23576 29-451 T234C): as the sequence (P23576 29-451 S232C) above, with C204S, T206C counted along it
# Sequence of α2T206Cβ2γ2 GABAA receptor (P18508 39-466): as the sequence (P18508 39-466) above
# Sequence of α2T206Cβ2γ2 GABAA receptor (P63138 26-474 partner): as the sequence (P63138 26-474 partner) above
# Experimental: as §1, §4, §5
# Sequence of α5β1γ2 receptors (P19969 32-464 limits assumed): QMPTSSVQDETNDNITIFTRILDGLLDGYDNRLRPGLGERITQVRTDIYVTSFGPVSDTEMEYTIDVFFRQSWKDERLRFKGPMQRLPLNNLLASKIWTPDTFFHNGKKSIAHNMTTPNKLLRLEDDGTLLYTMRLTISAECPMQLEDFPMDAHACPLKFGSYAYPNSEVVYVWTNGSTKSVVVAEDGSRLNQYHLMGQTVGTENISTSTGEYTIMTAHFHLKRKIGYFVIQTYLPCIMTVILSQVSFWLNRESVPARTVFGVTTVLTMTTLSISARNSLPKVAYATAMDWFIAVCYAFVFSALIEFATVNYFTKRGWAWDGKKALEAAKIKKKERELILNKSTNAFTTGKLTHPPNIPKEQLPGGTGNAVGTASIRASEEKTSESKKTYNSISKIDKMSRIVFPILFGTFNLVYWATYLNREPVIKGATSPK
# Sequence of α5β1γ2 receptors (P15431 26-474 partner): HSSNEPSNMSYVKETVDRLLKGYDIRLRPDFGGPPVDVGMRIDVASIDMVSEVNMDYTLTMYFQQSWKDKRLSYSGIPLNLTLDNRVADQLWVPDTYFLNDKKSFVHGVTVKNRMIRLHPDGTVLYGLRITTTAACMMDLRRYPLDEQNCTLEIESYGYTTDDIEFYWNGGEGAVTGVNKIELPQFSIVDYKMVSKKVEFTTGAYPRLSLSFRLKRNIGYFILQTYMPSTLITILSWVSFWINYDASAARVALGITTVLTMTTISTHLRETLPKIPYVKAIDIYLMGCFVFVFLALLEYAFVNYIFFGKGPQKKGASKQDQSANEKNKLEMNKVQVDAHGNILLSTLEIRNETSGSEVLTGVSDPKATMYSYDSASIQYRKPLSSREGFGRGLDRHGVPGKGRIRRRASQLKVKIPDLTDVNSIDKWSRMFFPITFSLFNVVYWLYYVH
# Sequence of α5β1γ2 receptors (P18508 39-466): as the sequence (P18508 39-466) above
compound,measurement,setting,value
CN1C(=O)C(N=C=S)N=C(c2ccccc2)c2cc([N+](=O)[O-])ccc21 (stereo not shown) [3-NCS],Ki,[1],9.84 ± 1.48 µM
same,Covalent reaction with 3-NCS (in words),[2],did not covalently react
same,"% allosteric modulation, 3-NCS",[3],46±17%
same,Irreversible change of GABA current amplitude after 3-NCS (in words),[4],failed to show any changes in the current amplitude
same,"% allosteric modulation, 3-NCS",[5],15±11%
same,"% allosteric modulation, 3-NCS",[6],23±18%
same,"% allosteric modulation, 3-NCS",[7],28±16%
same,"% allosteric modulation, 3-NCS",[8],4±4%
same,"% allosteric modulation, 3-NCS",[9],0±2%
same,"% allosteric modulation, 3-NCS",[10],−4±6%
same,"% allosteric modulation, 3-NCS",[11],10±5%
same,activation at 10 µM,[12],1 ± 10%
same,activation at 10 µM,[13],119 ± 51%
same,activation at 10 µM,[14],35 ± 10%
same,activation at 10 µM,[15],60 ± 43%
same,activation at 10 µM,[16],53 ± 29%
